Data on ten compounds can be found in ChEMBL document CHEMBL1201862, “PubChem BioAssay data set” (2004).

The structures appear in SMILES notation. Several values for one entry are separate records, joined by “and”; a condition that tells them apart may be missing. Equal entries are not always repeated.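 48-hour exposure; five concentrations; linearly interpolated endpoints. Here, GI50 denotes the concentration required for 50% inhibition of growth.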 Activity calls are given as the source filed them. Cut-off read from the data, not from the text of the source: active = GI50 up to about 1.1 µM and inactive = higher.

Among the test systems are A549; BT-549; EKVX; HCT-116; HCT-15; HOP-92; HT-29; IGROV-1; MDA-MB-435; MOLT-4; Malme-3M; NCI-H460; NCI/ADR-RES; OVCAR-4; OVCAR-8; RXF 393; SF-539; SK-MEL-5; SNB-19; NCI-H23.
What all share (test): growth of human tumour cells (NCI), 48 h

Take `O=C(Cc1nccc2c1[nH]c1ccccc12)OC1C#CCSCC#C/C=C\1` (stereo not drawn): the GI50 with A549 is > 100 µM (inactive); in the assay on BT-549, > 100 µM (inactive); with EKVX it was 64.4 µM (inactive); with HCT-116, 50 µM (inactive); with HCT-15 it was greater than 100 µM; in the assay on HOP-92 it was > 100 µM (inactive). Moreover, the GI50 in the assay on HT-29 is > 100 µM (inactive); in the assay on IGROV-1, > 100 µM (inactive); with MDA-MB-435 it was 75.7 µM (inactive); with MOLT-4, 39.5 µM (inactive); in the assay on Malme-3M, > 100 µM (inactive); in the assay on NCI-H460 it was > 100 µM (inactive). The GI50 in the assay on NCI/ADR-RES, in the assay with OVCAR-4, with OVCAR-8, with RXF 393, in the assay with SF-539 and with SK-MEL-5 was > 100 µM (inactive) in each case. In addition, in the assay on SNB-19, the GI50 is > 100 µM (inactive).

Take `Cc1nc(-c2cc3c(ccc4ccccc43)oc2=O)cs1`: the GI50 in the assay on A549 was > 100 µM (inactive); in the assay with BT-549, 23.7 µM (inactive); in the assay on EKVX it was 35.8 µM (inactive); in the assay with HCT-116, > 100 µM (inactive); in the assay on HCT-15 it was greater than 100 µM; in the assay on HOP-92, 30.2 µM (inactive). Besides, the GI50 with HT-29 is > 100 µM (inactive); with IGROV-1, 21.5 µM (inactive); in the assay with MDA-MB-435, > 100 µM (inactive); in the assay on MOLT-4, > 100 µM (inactive); in the assay with Malme-3M, 76.2 µM (inactive); in the assay on NCI-H460, 91.8 µM (inactive). The GI50 in the assay on NCI/ADR-RES is 48.3 µM (inactive); with OVCAR-4, 37.7 µM (inactive); in the assay on OVCAR-8, 35.5 µM (inactive); with RXF 393, 35.8 µM (inactive); with SF-539, 43.3 µM (inactive); in the assay on SK-MEL-5 it was > 100 µM (inactive). Moreover, the GI50 in the assay with SNB-19 was 33.2 µM (inactive).

Turning to `CC1OC(OC2C(OC(=O)[C@]34CCC(C)(C)C[C@H]3C3=CC[C@@H]5[C@@]6(C)CC[C@H](OC7OC(CO)C(O)C(O)C7OC7OC(CO)C(O)C(O)C7O)C(C)(C)[C@@H]6CC[C@@]5(C)[C@]3(C)CC4)OCC(O)C2O)C(O)C(O)C1OC1OCC(O)C(OC2OCC(O)C(O)C2O)C1O` (stereo partly drawn), the GI50 was 3.01 µM (inactive) and 3.03 µM (inactive) with A549; 3.51 µM (inactive) and 3.82 µM (inactive) with BT-549; 2.44 µM (inactive) and 2.97 µM (inactive) in the assay with EKVX; 5.04 µM (inactive) and 3.85 µM (inactive) in the assay with HCT-116; 12.9 µM and 13 µM in the assay with HCT-15; 1.92 µM (inactive) and 2.15 µM (inactive) in the assay on HOP-92. Also, the GI50 is 3.02 µM (inactive) and 3.33 µM (inactive) with HT-29; 11.9 µM (inactive) and 8.38 µM (inactive) with IGROV-1; 1.67 µM (inactive) and 1.94 µM (inactive) with MDA-MB-435; 2.49 µM (inactive) and 2.52 µM (inactive) with Malme-3M; 2.42 µM (inactive) and 3.1 µM (inactive) in the assay with NCI-H23; 15.7 µM (inactive) and 17.7 µM (inactive) in the assay on NCI-H460. For the same compound, the GI50 with NCI/ADR-RES was 5.81 µM (inactive) and 3.99 µM (inactive); in the assay on OVCAR-4, 7.19 µM (inactive) and 5.41 µM (inactive); with OVCAR-8, 7.74 µM (inactive) and 11.6 µM (inactive); in the assay on RXF 393, 9.86 µM (inactive) and 6.75 µM (inactive); in the assay with SF-539 it was 29.2 µM (inactive) and 19.5 µM (inactive); in the assay with SK-MEL-5, 2.82 µM (inactive) and 3.24 µM (inactive). Besides, in the assay with SNB-19, the GI50 is 7.89 µM (inactive) and 7.41 µM (inactive).

In the case of `CN(C)CC1=Nc2cccc3cccc(c23)N1`, the GI50 is 67.8 µM (inactive) in the assay with A549; 17.6 µM (inactive) in the assay with BT-549; 17.2 µM (inactive) in the assay with EKVX; 8.15 µM (inactive) in the assay with HCT-116; 23.8 µM in the assay on HCT-15; 18.8 µM (inactive) with HOP-92. In addition, the GI50 in the assay with HT-29 was 22.8 µM (inactive); in the assay with IGROV-1 it was 18.5 µM (inactive); in the assay on MDA-MB-435 it was 20.2 µM (inactive); in the assay on Malme-3M, 22 µM (inactive); in the assay on NCI-H23 it was 22.9 µM (inactive); in the assay with NCI-H460, 34.3 µM (inactive). The GI50 was 33.7 µM (inactive) with NCI/ADR-RES; 13.3 µM (inactive) in the assay with OVCAR-4; 33.8 µM (inactive) with OVCAR-8; 17.9 µM (inactive) in the assay on RXF 393; 19.8 µM (inactive) with SF-539; 15.4 µM (inactive) in the assay with SK-MEL-5. The GI50 with SNB-19 was > 100 µM (inactive).

Take `CCN1CCC(O)(/C=C/c2ccc(OC)cc2)C(C(=O)/C=C/c2ccc(OC)cc2)C1` (stereo not drawn): the GI50 is 16.6 µM (inactive) with A549; 15.5 µM (inactive) in the assay on BT-549; 13.6 µM (inactive) in the assay on EKVX; 3.81 µM (inactive) with HCT-116; greater than 10 µM with HCT-15; 9.48 µM (inactive) with HOP-92. Moreover, the GI50 with HT-29 is 7.16 µM (inactive); in the assay with IGROV-1, 13.7 µM (inactive); with MDA-MB-435, 6.05 µM (inactive); in the assay with MOLT-4 it was 2.72 µM (inactive); in the assay with Malme-3M it was 17.1 µM (inactive); in the assay on NCI-H23, 12.4 µM (inactive). For the same compound, the GI50 in the assay with NCI-H460 is 11.1 µM (inactive); in the assay on NCI/ADR-RES it was 6.15 µM (inactive); in the assay with OVCAR-4, 13.3 µM (inactive); in the assay with OVCAR-8 it was > 10 µM (inactive); in the assay with RXF 393, 2.37 µM (inactive); in the assay with SF-539, 13.7 µM (inactive). The GI50 with SNB-19 is 15.1 µM (inactive).

As to `O=C(N1CCN(c2ccccc2)CC1)N(C(=O)C1(c2ccc(Cl)cc2)CCCC1)S(=O)(=O)c1ccccc1`, the GI50 in the assay with A549 is 36.2 µM (inactive); in the assay on BT-549 it was 27.8 µM (inactive); in the assay with EKVX it was 21.1 µM (inactive); in the assay with HCT-116, 22.5 µM (inactive); in the assay on HCT-15 it was 25.1 µM; in the assay on HOP-92, 32.8 µM (inactive). Besides, the GI50 in the assay with HT-29 is 27.9 µM (inactive); in the assay with MDA-MB-435, 43.8 µM (inactive); in the assay with MOLT-4, 23.3 µM (inactive); in the assay on Malme-3M, 26.4 µM (inactive); in the assay with NCI-H23, 26.7 µM (inactive); with NCI-H460 it was 30.5 µM (inactive). Further, the GI50 is 23.7 µM (inactive) in the assay with NCI/ADR-RES; 24.1 µM (inactive) in the assay on OVCAR-4; 33 µM (inactive) with OVCAR-8; 42.2 µM (inactive) in the assay on RXF 393; 22.1 µM (inactive) with SF-539; 19.9 µM (inactive) in the assay on SK-MEL-5. Also, the GI50 in the assay on SNB-19 is 28.1 µM (inactive).

In the case of `COC(=O)/C=C\C(C#N)(C#N)/N=C/c1ccc(Br)cc1`, the GI50 with A549 is 2.77 µM (inactive); in the assay with BT-549, 11.2 µM (inactive); in the assay on EKVX it was 14.2 µM (inactive); in the assay with HCT-116, 2.57 µM (inactive); in the assay on HCT-15, 2.94 µM; with HOP-92 it was 1.99 µM (inactive). The GI50 was 2.58 µM (inactive) with HT-29; 14.3 µM (inactive) in the assay with IGROV-1; 7 µM (inactive) with MDA-MB-435; 0.673 µM (active) in the assay with MOLT-4; 3.24 µM (inactive) with Malme-3M; 14.9 µM (inactive) with NCI-H23. The GI50 in the assay with NCI-H460 was 19.6 µM (inactive); with NCI/ADR-RES, 20.2 µM (inactive); in the assay with OVCAR-4, 8.83 µM (inactive); in the assay on OVCAR-8 it was 5.47 µM (inactive); in the assay on RXF 393, 4.92 µM (inactive); with SK-MEL-5, 1.5 µM (inactive). The GI50 in the assay with SNB-19 was 2.74 µM (inactive).

For the compound `O=c1[nH]c2ccc(C(F)(F)F)cc2nc1Cc1ccccc1`, the GI50 was 34 µM (inactive) in the assay with BT-549; 25.8 µM (inactive) with EKVX; 37.2 µM (inactive) in the assay with HCT-116; 36.1 µM with HCT-15; 18.7 µM (inactive) in the assay on HOP-92; 25.4 µM (inactive) with HT-29. Also, the GI50 in the assay on IGROV-1 was 23.4 µM (inactive); in the assay with MDA-MB-435, 28.4 µM (inactive); in the assay on MOLT-4, 16.2 µM (inactive); in the assay on NCI-H23, 19.6 µM (inactive); with NCI-H460 it was 27.9 µM (inactive); in the assay on NCI/ADR-RES, 18.5 µM (inactive). For the same compound, the GI50 with OVCAR-4 was 33.4 µM (inactive); with OVCAR-8, 39.5 µM (inactive); in the assay on RXF 393, 27.2 µM (inactive); with SF-539, 31.3 µM (inactive); with SK-MEL-5, 24.7 µM (inactive); in the assay on SNB-19 it was 53 µM (inactive).

Turning to `O=C(O)c1cc2ccccc2c(/N=N/c2c([N+](=O)[O-])cc([N+](=O)[O-])cc2S(=O)(=O)O)c1O`, the GI50 is > 100 µM (inactive) in the assay with A549; > 100 µM (inactive) in the assay on BT-549; > 100 µM (inactive) in the assay on EKVX; > 100 µM (inactive) with HCT-116; greater than 100 µM with HCT-15; > 100 µM (inactive) in the assay on HOP-92. The GI50 in the assay on HT-29, in the assay with IGROV-1, in the assay on MDA-MB-435, with MOLT-4, in the assay with Malme-3M and with NCI-H23 was > 100 µM (inactive) throughout. Besides, the GI50 in the assay on NCI/ADR-RES, with OVCAR-4, in the assay with OVCAR-8, in the assay on RXF 393, in the assay on SK-MEL-5 and in the assay on SNB-19 was > 100 µM (inactive) in each case.

For `CCOC(=O)C1(O)C(=O)C2=C3C(=O)OC(C4OC(=O)c5c(c(O)c(O)c(O)c5C31)-c1c(cc(O)c(O)c1O)C(=O)OC1COC(=O)c3cc(O)c(O)c(O)c3-c3c(cc(O)c(O)c3O)C(=O)OC14)[C@@H]2O` (stereo partly drawn), the GI50 in the assay with A549 is 15.2 µM (inactive); in the assay with BT-549 it was 18.8 µM (inactive); in the assay on EKVX, 13.4 µM (inactive); in the assay with HCT-116, 15.6 µM (inactive); in the assay on HCT-15 it was 17.6 µM; in the assay with HOP-92 it was 23 µM (inactive). In addition, the GI50 is 18.5 µM (inactive) with HT-29; 26 µM (inactive) with IGROV-1; 13 µM (inactive) in the assay on MDA-MB-435; 22 µM (inactive) with MOLT-4; 26.9 µM (inactive) in the assay on Malme-3M; 16.3 µM (inactive) in the assay on NCI-H23. The GI50 is 29.3 µM (inactive) in the assay on NCI-H460; 27.6 µM (inactive) in the assay with NCI/ADR-RES; 17.6 µM (inactive) in the assay with OVCAR-4; 19.8 µM (inactive) in the assay on OVCAR-8; 17.5 µM (inactive) in the assay on RXF 393; 14.3 µM (inactive) with SK-MEL-5. For the same compound, in the assay on SNB-19, the GI50 was > 100 µM (inactive).
